For five molecules, IC50, ΔTm and Kd results are on record in ChEMBL document CHEMBL4024787, “Target Identification and Mode of Action of Four Chemically Divergent Drugs against Ebolavirus Infection” (J Med Chem, 2018).

Assay [1] concerns Ebolavirus. In words: microbe, parasite or virus in culture. The note with it: Orthoebolavirus, HepG2, 48 h. Type of assay: functional, cell-based.
Assay [2] has as its system Ebolavirus. In words: microbe, parasite or virus in culture. Type of assay: functional. The note with it: Orthoebolavirus, Vero C1008, 48 h.
The target in assay [3] is T1, Envelope glycoprotein (Zaire ebolavirus (strain Mayinga-76) (ZEBOV) (Zaire Ebola virus)) (UniProt Q05320).
T1 sequence (whole entry): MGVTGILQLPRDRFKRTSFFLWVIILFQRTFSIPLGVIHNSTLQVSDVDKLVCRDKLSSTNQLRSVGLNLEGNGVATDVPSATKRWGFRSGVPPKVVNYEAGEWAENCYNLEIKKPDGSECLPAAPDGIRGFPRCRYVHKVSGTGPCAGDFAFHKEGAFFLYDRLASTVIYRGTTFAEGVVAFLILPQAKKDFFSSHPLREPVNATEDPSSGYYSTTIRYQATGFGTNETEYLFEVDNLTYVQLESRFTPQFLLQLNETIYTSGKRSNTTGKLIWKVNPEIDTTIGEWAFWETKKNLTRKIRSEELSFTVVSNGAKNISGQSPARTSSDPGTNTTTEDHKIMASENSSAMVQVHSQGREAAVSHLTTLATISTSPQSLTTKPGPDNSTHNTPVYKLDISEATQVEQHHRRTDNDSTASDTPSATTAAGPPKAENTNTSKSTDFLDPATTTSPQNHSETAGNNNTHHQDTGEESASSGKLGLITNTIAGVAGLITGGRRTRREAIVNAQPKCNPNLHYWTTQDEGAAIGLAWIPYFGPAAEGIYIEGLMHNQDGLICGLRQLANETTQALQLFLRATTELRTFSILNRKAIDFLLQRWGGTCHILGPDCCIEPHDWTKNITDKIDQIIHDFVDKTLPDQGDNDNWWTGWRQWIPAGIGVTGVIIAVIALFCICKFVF
In words: Binding affinity to Ebola virus Zaire Mayinga-76 recombinant GP protein assessed as change in melting temperature at 500 uM by SYPRO orange dye-based fluorescence assay. To be noted: 1976.

The target of the next assay is T2, Envelope glycoprotein (Zaire ebolavirus (strain Mayinga-76) (ZEBOV) (Zaire Ebola virus), UniProt Q05320).
T2 sequence (Q05320 whole entry): T1 sequence (whole entry)
In words: Binding affinity to Ebola virus Zaire Mayinga-76 recombinant GP protein by SYPRO orange dye-based fluorescence assay. The arrangement: species or system 1976.

As a reminder, the IC50 is the concentration at which inhibition is half-maximal. A lower IC50 goes with greater potency. In the case of `CN(C)CCOc1ccc(/C(=C(/CCCl)c2ccccc2)c2ccccc2)cc1` [TOREMIFENE], the concentration for half-maximal inhibition (IC50) in the assay on Ebolavirus [1] turned out to be 0.026 µM; in the assay with Ebolavirus [2], 0.162 µM.
As usually defined, the ΔTm is the shift of the melting midpoint relative to a reference. Broadly, the Kd is a measure of binding affinity in units of concentration. Take `CC(C)COCC(CN(Cc1ccccc1)c1ccccc1)N1CCCC1` (configuration not stated) [BEPRIDIL]: the ΔTm in assay [3] is -6 °C. The IC50 in the assay on Ebolavirus [1] turned out to be 3.21 µM; with Ebolavirus [2] it was 5.08 µM. Besides, the Kd at Envelope glycoprotein turned out to be 290 µM.
As for `CN1[C@@H]2CC[C@@H]1CC(OC(c1ccccc1)c1ccccc1)C2` (relative stereo), the ΔTm in assay [3] was -6 °C.
As to `CN[C@H]1CC[C@@H](c2ccc(Cl)c(Cl)c2)c2ccccc21` [SERTRALINE], in assay [3], the shift in melting temperature (ΔTm) was -3 °C.
Take `Fc1ccc([C@@H]2CCNC[C@H]2COc2ccc3c(c2)OCO3)cc1` [PAROXETINE]: the ΔTm in assay [3] is -4 °C. Besides, the IC50 came to 1.38 µM with Ebolavirus [1] and 7.45 µM with Ebolavirus [2]. In addition, on Envelope glycoprotein, the Kd turned out to be 650 µM.
